Results from patent US8106190B2, “2-aminobenzamide derivatives” (Astellas Pharma Inc., priority 2005, dated 2012).
Where a name gives a salt, the structure may show the parent alone.

Legend:
[1] = molecular target: T1, human VR1 (Homo sapiens, UniProt Q8NER1); assay: Receptor binding assay ([3H]RTX) using membrane of human VR1 stably expressing HEK 293 cell; settings: [3H]RTX binding, VR1/HEK 293 membrane sample, 37° C. 60 minutes; read-out: VR1 receptor binding inhibitory activity, IC50 value
T1 construct: A complete length cDNA coding for human VR1 was obtained; expressed in transfected cells
Experimental: 1. Receptor Binding Assay Using VR1 Stably Expressing Cell
1) Construction of Human VR1 Stably Expressing Cell
A complete length cDNA coding for human VR1 was obtained by the following method. Firstly, a first strand cDNA was synthesized by carrying out reverse transcription of human brain mRNA using a reverse transcriptase. Next, PCR by Hot Start method was carried out using this first strand cDNA as the template and using Taq DNA polymerase. In the aforementioned PCR, an oligonucleotide consisting of the 424th to 443rd nucleotide sequence of a conventionally known human VR1 cDNA sequence (Genbank AJ277028.1) was used as the sense primer, and an oligonucleotide consisting of a complementary chain sequence of the 3082nd to 3100th nucleotide sequence as the antisense primer, and thermal denaturation was firstly carried out at 98° C. (1 minute) and then a cycle consisting of 98° C. (15 seconds)/63° C. (30 seconds)/72° C. (3 minutes) was repeated 35 times.
Cloning of the thus amplified DNA fragment was carried out using pCR-XL-TOPO vector (TOPO XL PCR Cloning Kit; Invitrogen, USA). The human VR1-cDNA alone was isolated by digesting the resulting plasmid DNA with a restriction enzyme EcoRI and then integrated into pcDNA3.1 (+) plasmid (Invitrogen, USA). In this case, the above genetic engineering operations were carried out by conventionally known methods (Sambrook, J. et al., “Molecular Cloning—A Laboratory Manual”, Cold Spring Harbor Laboratory Press, NY, 2001) and in accordance with the instructions attached to respective reagents.
Next, the resulting pcDNA3.1-VR1 was transferred into HEK 293 cell. By selecting VR1/HEK 293 cells using DMEM medium (Invitrogen, USA) containing 10% FBS, 100 μg/ml streptomycin, 100 U/ml penicillin and 400 μg/ml G 418, a receptor stably expressing cell strain was prepared. The receptor stably expressing cell was sub-cultured in the medium described in the above.
2) Preparation of Membrane Sample
The VR1/HEK 293 cell described in the above was mass-produced in a dish and then, after discarding the medium, scraped out after adding ice-cooled PBS. Centrifugation was carried out at 1000 rpm and at 4° C. for 10 minutes, and the resulting residue was homogenized by adding a homogenization buffer (25 mM Tris-HCl, 220 mM sucrose, pH 7.4) and centrifuged at 2,200 rpm and at 4° C. for 10 minutes. The resulting supernatant was centrifuged at 30,000×g and at 4° C. for 20 minutes and the resulting residue was mixed with 25 mM Tris-HCl, pH 7.4, and centrifuged at 30,000×g and at 4° C. for 20 minutes, and this operation was repeated twice. The resulting residue was suspended in 25 mM Tris-HCl, pH 7.4, and the protein concentration was determined using a protein assay staining solution (Bio-Rad, USA). The thus prepared membrane sample was stored at −80° C.
3) Receptor Binding Assay
This was carried out by modifying the method of [Neurosci., 57: 747-757 (1993)]. As the assay buffer, 25 mM Tris-HCl, 0.025% BSA, pH 7.4 was used. Each test compound, [^3H]RTX 50 μl (about 50,000 dpm; Perkin Elmer Life Science, USA) and the aforementioned membrane sample (protein quantity about 25 μg) were suspended in a microplate to a total volume of 300 μl, incubated at 37° C. for 60 minutes and then incubated on ice for 10 minutes. A 200 μg/50 μl portion of an ice-cooled α1 acid glycoprotein (AGP; Sigma) was added thereto and further incubated for 5 minutes. Completion of the incubation was carried out by rapid filtration of the reaction liquid using a GF/B filter (Perkin Elmer Life Science, USA). After 7 times of washing with ice-cooled 25 mM Tris-HCl buffer (pH 7.4), radioactivity of the filter was measured by a liquid scintillation counter. Regarding the specific binding, a part substituted by 1 μM of RTX among the total binding of [^3H]RTX with the VR1 receptor stably expressing cell membrane fraction was regarded as the specific binding originated from the VR1 receptor. Evaluation of test compounds was carried out in the following manner. […]

[2] = tested on: mouse (ddY, male); assay: Capsaicin test (capsaicin-induced paw-licking behavior); format: in vivo; settings: oral administration 45 minutes before 1.6 μg capsaicin to planta; 5 minutes observation; vehicle group = 100%
Experimental: Inhibitory action on pain behavior of the compounds as the active ingredients of the pharmaceutical preparations of the present invention was evaluated in accordance with the method described in a reference [Neuropharmacol., 31: 1279-1285 (1992)]. That is, when 1.6 μg of capsaicin is administered to a planta of a mouse (ddY, male, 4 to 5 weeks of age), it induces paw-licking behavior. The pain behavior suppressing action was evaluated by measuring the paw-licking behavior expressing time during 5 minutes after the administration. Each test compound was orally administered 45 minutes before the administration of capsaicin. Evaluation of the test compounds was carried out by calculating each inhibition rate of the test compound administration group when the paw-licking behavior expressing time of the vehicle administration group was regarded as 100%.

[3] = molecular target: T1, human VR1; assay: Inhibitory activity on capsaicin-induced electric current, whole cell patch clamp, VR1 receptor-expressed HEK 293 cells; format: cell-based; settings: capsaicin 1 μM, voltage-clamped, read-out: IC50 value, inhibition of capsaicin-induced current response
Experimental: 2. Measurement of Inhibitory Activity on Capsaicin-Induced Electric Current Using VR1 Stably Expressing Cell
The VR1 receptor-expressed HEK 293 cells prepared in the aforementioned Test Example 1 were inoculated onto a poly-D-lysine-coated cover glass to a density of from 1 to 1.5×10^4 cells/cm^2. This was allowed to stand still in a CO2 incubator (37° C., 5% CO2) and used in this test after a lapse of from 3 to 15 hours.
By recording whole cell patch clamp for the VR1 receptor-expressed HEK 293 cells under a voltage-clamped condition, the current response induced by topically applying capsaicin (1 μM) to the vicinity of the cells was measured. Test compounds were dissolved in an extracellular liquid and applied to a chamber by multi-barrel. Composition (mM) of the extracellular solution was set to NaCl 145, CsCl 5, CaCl2 1, MgCl2 1, HEPES 10 and glucose 10 [pH=7.3]. Composition (mM) of the intracellular solution was set to CsCl 120, MgCl2 2, HEPES 10, BAPTA 10, Na2 GTP 0.2, Mg ATP 4 and phosphorcreatine Na2 4 [pH=7.2]. By defining the current response of capsaicin in the absence of test compound as 100% and continuously applying each test compound starting from a lower concentration, inhibition rate at each concentration was measured. The IC50 value was calculated by nonlinear recursion from respective inhibition rate.

[4] = tested on: rat (SD, male); assay: Spinal nerve ligation model test (von Frey hair test); format: in vivo; settings: L5/L6 spinal nerve ligated rat, oral administration 60 minutes before evaluation
Experimental: 4. Spinal Nerve Ligation Model Test
Inhibitory action on pain behavior of the compounds as the active ingredients of the pharmaceutical preparations of the present invention was evaluated in accordance with the method described in a reference [Pain, 50: 355-363 (1992)]. Under pentobarbital anesthesia, the lumbar skin and muscle of a rat (SD, male, 5 to 6 weeks of age) were incised and the lumber nerve was exposed by removing the transverse process of lumbar vertebra L 6. The L 5 and L 6 spinal nerves were ligated with a silk thread and then the wound was sutured. The treatment was applied to the left side.
The drug effect evaluation was carried out after 7 to 15 days of the operation. Pain threshold for mechanical stimulus was examined by the von Frey hair (VFH) test.
Individuals having lowered pain threshold were selected in advance by the VFH test on the day before the drug effect evaluation and divided into groups in such a manner that difference in the average threshold value between respective groups becomes small.
The test compounds were orally administered 60 minutes before the drug effect evaluation. […]

T1 sequence (Q8NER1 whole entry): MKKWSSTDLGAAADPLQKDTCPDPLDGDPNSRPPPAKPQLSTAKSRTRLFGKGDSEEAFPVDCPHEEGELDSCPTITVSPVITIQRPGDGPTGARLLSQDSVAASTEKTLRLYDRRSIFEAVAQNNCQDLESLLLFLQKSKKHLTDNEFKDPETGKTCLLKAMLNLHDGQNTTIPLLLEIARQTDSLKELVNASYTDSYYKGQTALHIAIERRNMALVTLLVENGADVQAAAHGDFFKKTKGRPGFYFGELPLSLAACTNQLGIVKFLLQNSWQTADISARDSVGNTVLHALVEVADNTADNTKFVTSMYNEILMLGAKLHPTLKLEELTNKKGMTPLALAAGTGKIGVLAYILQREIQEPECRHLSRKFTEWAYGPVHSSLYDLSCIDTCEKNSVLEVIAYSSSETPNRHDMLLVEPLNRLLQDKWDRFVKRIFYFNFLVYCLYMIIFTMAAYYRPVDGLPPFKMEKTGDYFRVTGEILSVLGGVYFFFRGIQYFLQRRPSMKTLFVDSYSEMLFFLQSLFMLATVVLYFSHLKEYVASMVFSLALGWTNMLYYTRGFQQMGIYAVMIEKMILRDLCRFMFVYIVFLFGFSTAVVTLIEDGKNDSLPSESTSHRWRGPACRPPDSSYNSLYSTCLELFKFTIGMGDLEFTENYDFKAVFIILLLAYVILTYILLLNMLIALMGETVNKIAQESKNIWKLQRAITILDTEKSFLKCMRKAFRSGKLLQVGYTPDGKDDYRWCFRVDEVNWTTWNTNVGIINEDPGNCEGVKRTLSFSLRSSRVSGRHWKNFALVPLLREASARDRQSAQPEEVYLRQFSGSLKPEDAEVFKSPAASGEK

Row | IC50 [1] [nM] | SMILES | inhibition rate of paw-licking behavior expressing time [2] [%] | further results
1 | 12 | CN1C(=O)CCc2ccc(NC(=O)c3ccc(Cl)cc3NC3CCCC3)cc21.Cl [Example 1, 4-chloro-2-(cyclopentylamino)-N-(1-methyl-2-oxo-1,2,3,4-tetrahydroquinolin-7-yl)benzamide hydrochloride] | 45 | –
2 | 5.8 | CCC(CC)Nc1cc(Cl)ccc1C(=O)Nc1ccc2c(c1)N(C)C(=O)CC2 [Example 17] | 54 | –
3 | – | CN1C(=O)CCc2ccc(NC(=O)c3ccc(Cl)cc3N[C@H]3CCCC[C@@H]3N3CCCC3)cc21 [Example 54] | 34 | –
4 | – | CC1Oc2ccc(NC(=O)c3ccc(C(F)(F)F)cc3NC3CCCCC3)cc2NC1=O (stereo not drawn) [Example 73] | 95 | –
5 | 4.2 | O=C(Nc1ccc2c(c1)N(CCO)C(=O)CC2)c1ccc(C(F)(F)F)cc1NC1CCCCC1 [Example 105, 2-(cyclohexylamino)-N-[1-(2-hydroxyethyl)-2-oxo-1,2,3,4-tetrahydroquinolin-7-yl]-4-(trifluoromethyl)benzamide] | – | –
6 | 52 | C[C@H]1Oc2ccc(NC(=O)c3ccc(Cl)cc3N[C@@H]3CCCC[C@@H]3N3CCCC3)cc2NC1=O [Example 106, 4-chloro-N-[(2R)-2-methyl-3-oxo-3,4-dihydro-2H-benzoxazin-6-yl]-2-{[(1R,2S)-2-pyrrolidin-1-ylcyclohexyl]amino}benzamide hydrochloride] | – | –
7 | 13 | Cl.O=C1Cc2c(cc(NC(=O)c3ccc(C(F)(F)F)cc3N[C@H]3CCCC[C@@H]3N3CCCC3)cc2C(F)(F)F)N1 [Example 107, N-[2-oxo-4-(trifluoromethyl)-2,3-dihydro-1H-indol-6-yl]-2-{[(1S,2S)-2-pyrrolidin-1-ylcyclohexyl]amino}-4-(trifluoromethyl)benzamide hydrochloride] | 53 | IC50 [3]: 8.8 nM; pain threshold for mechanical stimulus of the operation side leg (VFH test) [4]: completely restored the threshold value of the operation side leg to the threshold value range of the non-operation side leg
8 | 19 | Cc1nc2cc(NC(=O)c3ccc(C(F)(F)F)cc3N[C@H]3CCCC[C@@H]3N(C)C)ccc2s1 [Example 108, 2-{[(1S,2S)-2-(dimethylamino)cyclohexyl]amino}-N-(2-methyl-1,3-benzothiazol-5-yl)-4-(trifluoromethyl)benzamide hydrochloride] | – | –
9 | 45 | CN1C(=O)CCc2ccc(NC(=O)c3ccc(Cl)cc3NN3CCCCC3)cc21 [Example 119] | – | –
10 | 2.6 | CN1C(=O)CCc2ccc(NC(=O)c3ccc(C(F)(F)F)cc3N[C@H]3CCCC[C@@H]3N3CCC(C)(C)C3)cc21 [Example 170] | – | –
11 | 5.6 | CN1C(=O)CCc2ccc(NC(=O)c3ccc(C(F)(F)F)cc3NC3(CN4CCCC4)CCCCC3)cc21 [Example 173] | – | –
12 | 8.9 | CN1C(=O)CCc2ccc(NC(=O)c3ccc(C(F)(F)F)cc3N[C@@H]3CCCC[C@H]3OCc3ccccc3)cc21 [Example 176] | – | –
13 | 62 | CN1C(=O)CCc2ccc(NC(=O)c3ccc(C(F)(F)F)cc3Nc3cccnc3)cc21 [Example 178] | – | –
14 | 31 | CC1(C)C(=O)Nc2cc(NC(=O)c3ccc(C(F)(F)F)cc3N[C@H]3CCCC[C@@H]3N3CCCC3)ccc21 [Example 248] | – | –
15 | 9.8 | COCCNc1cc(C(F)(F)F)ccc1C(=O)Nc1ccc2sc(C)nc2c1 [Example 307] | – | –
16 | 25 | Cc1nc2cc(NC(=O)c3ccc(C(F)(F)F)cc3NCc3ccncc3)ccc2s1 [Example 321] | 67 | –
17 | 3.7 | CC(C)CN1CCC(Nc2cc(C(F)(F)F)ccc2C(=O)Nc2ccc3c(c2)NC(=O)C3(C)C)CC1 [Example 327] | – | –
18 | 23 | CCCCCN1CC[C@H](Nc2cc(C(F)(F)F)ccc2C(=O)Nc2ccc3c(c2)NC(=O)C3(C)C)C1 [Example 334] | 58 | –
19 | 87 | CCCCN1CCC(Nc2cc(C(F)(F)F)ccc2C(=O)Nc2ccc3c(c2)NC(=O)C3(C)C)CC1 [Example 335] | 49 | –
20 | 15 | O=C(Nc1ccc2cccnc2c1)c1ccc(C(F)(F)F)cc1N[C@H]1CCCC[C@H]1N1CCCC1 [Example 367] | – | –
21 | 18 | O=C(Nc1ccc2cccnc2c1)c1ccc(C(F)(F)F)cc1N[C@H]1CCCC[C@@H]1N1CCCC1 [Example 386] | – | –
22 | 60 | CN1C(=O)CCc2ccc(NC(=O)c3cc(Cl)cnc3NCC3CC3)cc21 [Example 400] | – | –
